Experimental data: patent US20230143604A1, “QW DOSING OF GIP RECEPTOR AGONIST PEPTIDE COMPOUNDS AND USES THEREOF” (TAKEDA PHARMACEUTICAL COMPANY LIMITED, priority 2020, published 2023)
Starred links: 1 amine or outer side, 2 acyl side, 3 side chain; linkers in the order of their positions; H or OH if unused. Non-standard residues stand in square brackets, D forms with d. Residues, ends and D or L forms follow the SMILES beside them. Groups on a side chain read outwards from the residue. *: point of attachment. C20 diacid = O=C(O)CCCCCCCCCCCCCCCCCCC(=O)*; C18 diacid = O=C(O)CCCCCCCCCCCCCCCCC(=O)*; C17 diacid = O=C(O)CCCCCCCCCCCCCCCC(=O)*; γGlu = O=C(O)[C@H](CCC(=O)[*:2])N[*:1]; NMeY = CN[C@@H](Cc1ccc(O)cc1)C(=O)O; AEEA = NCCOCCOCC(=O)O; Aib = CC(C)(N)C(=O)O

Key:
[1] = Human plasma protein binding (PPB); assay type: in vitro ADME
Method: Stock solutions: (1000 μM) of the peptides are prepared in DMSO.
Human plasma (mixed gender; containing K2-EDTA as anti-coagulant; pre-adjusted to pH 7.4—NB alternative species may be used) is spiked individually with each test peptide (1000 nmol/L), sampled for analysis and then incubated (n=4) at 37° C. in a water bath for 30 minutes. Following the incubation period, the plasma is sampled for analysis, then transferred to ultracentrifugation tubes and centrifuged (n=3) at […] and 4° C. for 3 hours, after which the supernatant is sampled for analysis. An additional aliquot of the supernatant is taken at the end of the centrifugation period to determine the total protein concentration. An aliquot of the incubated plasma will be stored at 4° C. for 3 hours and then sampled for analysis. At the point of sampling, all samples are matrix-matched, treated with ice-cold acetonitrile/methanol (4:1 (vfv)) containing internal standard, centrifuged al 2000 g and 4° C. for 10 minutes and stored prior to LC-MS/MS analysis. An appropriate positive control compound control will be incubated and centrifuged in parallel; control plasma is also centrifuged to generate samples for matrix-matching. Fraction unbound in plasma (Fuplasma) values is determined by comparison of the analyte response in plasma to the analyte response in the supernatant, determined via peak area response ratios.
The samples are analyzed by LC-MS/MS using a 6500 (or equivalent) triple quadrupole mass spectrometer (AB Sciex) coupled to an appropriate Liquid Chromatography (LC) system. Protein binding and stability values are determined via peak area ratios using multiple reaction monitoring (MRM) parameters following compound optimisation. Multiple reaction monitoring (MRM) is a highly sensitive method of targeted mass spectrometry (MS) that can be used to selectively detect and quantify peptides based on the screening of specified precursor peptide-to-fragment ion transitions.

[2] = Dog plasma protein binding (PPB); assay type: in vitro ADME; conditions: pH 7.4; fraction unbound; dog serum; read-out: Dog PPB (FUplasma)
From the text: Dog PPB values presented below are obtained essentially as described for Human PPB samples, with the difference being that dog serum is used instead of human serum. Table 10 is provided with the values of (Fu,plasma) as fraction unbound expressed as a percentage compared to the percent bound. i.e. if the value is 0.0123, then the fraction unbound is […], which is 1.23% of the peptide is unbound and 98.77% is bound in plasma. Methods and analysis for performing the dog PPB protocol and results are the same as noted herein as for the Human PPB protocol and analysis.

[3] = Solubility in phosphate buffer pH 7.4
Procedure, shortened: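 Solubility at pH 7.4 determined by stepwise addition of 200 mM phosphate buffer in 100 μL increments to 3 mg peptide, mixing briefly each time, until no insoluble material remained, then measured by liquid chromatography.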

[4] = Pharmacokinetics in dog after IV and SC dosing; conditions: in vivo
Method: Pharmacokinetic (PK) were conducted in dog in order to determine the half-life after IV and SC dosing. The peptide was dissolved in 10% DMSO/0.09% Polysorbate/PBS pH 7.4 to a concentration of 3 nmol/mL and the animal were dose with a volume of 1 mL/kg SC or IV. Blood sample were collected at 0, 0.033, 0.083, 0.25, 0.5, 1, 2, 4, 6, 8, 12, 24, 48, 72, 96, 120, 168, 336 hours for IV dosing and 0.25, 0.5, 1, 2, 4, 6, 8, 12, 24, 48, 72, 96, 120, 168, 336 for SC dosing, EDTA-K2 was used as anticoagulant. The plasma concentration of the peptide was measured using LCMS. Allometric scaling of lipidated peptide pharmacokinetics including T1/2 and MRT is known in the art for rodent to dog and mini pig and to humans. […] See for example, Discovery and Development of Liraglutide and Semaglutide. Knudsen, L. B.; Lau, J. Frontiers in Endocrinology, 2019, vol 10, Article 155.

[5] = molecular target: T1, human GLP-1R (Homo sapiens, UniProt P43220); experiment: Human GLP1R agonist activity, intracellular cAMP accumulation; assay type: cell-based; conditions: Human GLP1R cAMP EC50, HEK293T (nM), HEK-293T cells overexpressing human GLP-1R, 1 hr
T1 construct: HEK-293T cells overexpressing full-length human GLP-1R; FLAG (N); host or cells: HEK-293T
Procedure, shortened: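 cAMP accumulation is measured by HTRF after a 1 hr, room-temperature, dark exposure of thawed cells (4×10^5 cells/mL in Krebs Ringer buffer) to compound. Activity is scaled between DMSO alone as 0% and 1 nm GLP-1 as 100%.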

[6] = system: C57BL/6J mice; experiment: Oral glucose tolerance test (OGTT); assay type: in vivo; conditions: 3 nmol/kg s.c., 24 hours before glucose loading
Procedure, shortened: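 Peptide or vehicle given s.c. at 0.1, 0.3, 3 or 10 nmol/kg (peptide-dependent), 24 h before oral 50% dextrose at 5 ml/kg unless stated otherwise. Blood glucose read at 0, 15, 30 and 60 min. % inhibition = (1−(AUC cpd−AUC naïve)/(AUC veh−AUC naïve))×100.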

[7] = both sexes, pH 7.4, fraction unbound, human plasma, 1000 nmol/L peptide, ultracentrifugation, read-out: Human PPB (FUplasma)

T1 sequence (P43220 24-463): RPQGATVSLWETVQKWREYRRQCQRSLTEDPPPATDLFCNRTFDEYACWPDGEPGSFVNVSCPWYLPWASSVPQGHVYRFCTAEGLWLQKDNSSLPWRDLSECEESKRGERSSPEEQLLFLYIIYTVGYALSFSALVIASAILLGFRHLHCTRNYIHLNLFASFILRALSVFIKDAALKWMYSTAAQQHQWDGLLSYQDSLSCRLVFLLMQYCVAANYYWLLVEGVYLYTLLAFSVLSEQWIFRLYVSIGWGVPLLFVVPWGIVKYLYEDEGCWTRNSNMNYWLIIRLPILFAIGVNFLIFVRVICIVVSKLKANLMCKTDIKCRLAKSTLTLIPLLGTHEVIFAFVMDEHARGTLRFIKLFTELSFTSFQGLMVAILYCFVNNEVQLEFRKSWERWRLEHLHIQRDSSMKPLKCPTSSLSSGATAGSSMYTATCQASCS

SMILES | fraction unbound at 30 min, 1000 nmol/L [2] | fraction unbound [1, 7] | fraction unbound [2] | solubility ([3]; pH 7.4) [mg/mL] | solubility ([3]; pH 7.4, aqueous buffer) [mg/mL] | also measured
CC[C@H](C)[C@H](NC(=O)[C@H](Cc1ccccc1)NC(=O)[C@@H](NC(=O)CNC(=O)[C@H](CCC(=O)O)NC(=O)C(C)(C)NC(=O)[C@H](Cc1ccc(O)cc1)NC)[C@@H](C)O)C(=O)N[C@@H](CO)C(=O)N[C@@H](CC(=O)O)C(=O)N[C@@H](Cc1ccc(O)cc1)C(=O)N[C@@H](CO)C(=O)N[C@H](C(=O)NC(C)(C)C(=O)N[C@@H](CC(C)C)C(=O)N[C@@H](CC(=O)O)C(=O)N[C@@H](CCCNC(=N)N)C(=O)NC(C)(C)C(=O)N[C@@H](C)C(=O)N[C@@H](CCC(N)=O)C(=O)NC(C)(C)C(=O)N[C@@H](CC(N)=O)C(=O)N[C@@H](Cc1ccccc1)C(=O)N[C@H](C(=O)N[C@@H](CC(N)=O)C(=O)N[C@@H](Cc1c[nH]c2ccccc12)C(=O)N[C@@H](CC(C)C)C(=O)N[C@@H](CC(C)C)C(=O)N[C@@H](C)C(=O)N[C@@H](CCC(N)=O)C(=O)N[C@@H](CCCCNC(=O)COCCOCCNC(=O)COCCOCCNC(=O)CC[C@H](NC(=O)CC[C@H](NC(=O)CCCCCCCCCCCCCCCC(=O)O)C(=O)O)C(=O)O)C(=O)N1CCC[C@H]1C(=O)N[C@@H](CO)C(=O)N[C@@H](CO)C(=O)NCC(=O)N[C@@H](C)C(=O)N1CCC[C@H]1C(=O)N1CCC[C@H]1C(=O)N1CCC[C@H]1C(=O)N[C@@H](CO)C(N)=O)C(C)C)[C@@H](C)CC [Compound 16] (H-[NMeY][Aib]EGTFISDYSI[Aib]LDR[Aib]AQ[Aib]NFVNWLLAQK([AEEA-AEEA-γGlu-γGlu-C17 diacid])PSSGAPPPS-NH2) | ≤ 0.00116 | – | – | – | – | fraction unbound at 30 min, 1000 nmol/L [1, 7]: < 0.0012; free unbound peptide in human plasma (in words) ([1]; judged for once per week (QW) dosing): optimum free unbound peptide; solubility ([3]; pH 7.4, aqueous buffer, pH 7.4 Phosphate Buffer - Solubility, 200 mM Phosphate buffer pH 7.4): ≥ 30 mg/mL; solubility ([3]; pH 7.4, solubility in phosphate buffer at pH 7.4, 200 mM phosphate buffer pH 7.4): ≥ 15 mg/mL; MRT ([4]; 3 nmol/kg, read-out: mean residence time (MRT)): 59 h; half-life ([4]; IV 3 nmol/kg, read-out: IV T½ (converted)): 38 h; MRT last ([4]; SC 3 nmol/kg, read-out: SC MRT 0-last): 59 h
CC[C@H](C)[C@H](NC(=O)[C@H](CO)NC(=O)[C@H](Cc1ccc(O)cc1)NC(=O)[C@H](CC(=O)O)NC(=O)[C@H](CO)NC(=O)[C@@H](NC(=O)[C@H](Cc1ccccc1)NC(=O)[C@@H](NC(=O)CNC(=O)[C@H](CCC(=O)O)NC(=O)C(C)(C)NC(=O)[C@H](Cc1ccc(O)cc1)NC)[C@@H](C)O)[C@@H](C)CC)C(=O)N[C@@H](C)C(=O)N[C@@H](CC(C)C)C(=O)N[C@@H](CC(=O)O)C(=O)N[C@@H](CCCNC(=N)N)C(=O)NC(C)(C)C(=O)N[C@@H](C)C(=O)N[C@@H](CCC(N)=O)C(=O)NC(C)(C)C(=O)N[C@@H](CCCCNC(=O)COCCOCCNC(=O)COCCOCCNC(=O)CC[C@H](NC(=O)CC[C@H](NC(=O)CCCCCCCCCCCCCCCCC(=O)O)C(=O)O)C(=O)O)C(=O)N[C@@H](Cc1ccccc1)C(=O)N[C@H](C(=O)N[C@@H](CC(N)=O)C(=O)N[C@@H](Cc1c[nH]c2ccccc12)C(=O)N[C@@H](CC(C)C)C(=O)N[C@@H](CC(C)C)C(=O)N[C@@H](C)C(=O)N[C@@H](CCC(N)=O)C(=O)N[C@@H](CCCNC(=N)N)C(=O)NCC(=O)O)C(C)C [Compound 37] (H-[NMeY][Aib]EGTFISDYSIALDR[Aib]AQ[Aib]K([AEEA-AEEA-γGlu-γGlu-C18 diacid])FVNWLLAQRG-OH) | – | 0.001 | 0.0012 | ≥ 15 | ≥ 30 | –
CC[C@H](C)[C@H](NC(=O)[C@H](CO)NC(=O)[C@H](Cc1ccc(O)cc1)NC(=O)[C@H](CC(=O)O)NC(=O)[C@H](CO)NC(=O)[C@@H](NC(=O)[C@H](Cc1ccccc1)NC(=O)[C@@H](NC(=O)CNC(=O)[C@H](CCC(=O)O)NC(=O)C(C)(C)NC(=O)[C@H](Cc1ccc(O)cc1)NC)[C@@H](C)O)[C@@H](C)CC)C(=O)N[C@@H](C)C(=O)N[C@@H](CC(C)C)C(=O)N[C@@H](CC(=O)O)C(=O)N[C@@H](CCCNC(=N)N)C(=O)NC(C)(C)C(=O)N[C@@H](C)C(=O)N[C@@H](CCC(N)=O)C(=O)NC(C)(C)C(=O)N[C@@H](CCCCNC(=O)COCCOCCNC(=O)COCCOCCNC(=O)CC[C@H](NC(=O)CC[C@H](NC(=O)CCCCCCCCCCCCCCCCCCC(=O)O)C(=O)O)C(=O)O)C(=O)N[C@@H](Cc1ccccc1)C(=O)N[C@H](C(=O)N[C@@H](CC(N)=O)C(=O)N[C@@H](Cc1c[nH]c2ccccc12)C(=O)N[C@@H](CC(C)C)C(=O)N[C@@H](CC(C)C)C(=O)N[C@@H](C)C(=O)N[C@@H](CCC(N)=O)C(=O)N[C@@H](CCCCN)C(=O)NCC(=O)O)C(C)C [Compound 39] (H-[NMeY][Aib]EGTFISDYSIALDR[Aib]AQ[Aib]K([AEEA-AEEA-γGlu-γGlu-C20 diacid])FVNWLLAQKG-OH) | – | 0.0112 | 0.0015 | ≥ 15 | ≥ 30 | –
CC[C@H](C)[C@H](NC(=O)[C@H](CO)NC(=O)[C@H](Cc1ccc(O)cc1)NC(=O)[C@H](CC(=O)O)NC(=O)[C@H](CO)NC(=O)[C@@H](NC(=O)[C@H](Cc1ccccc1)NC(=O)[C@@H](NC(=O)CNC(=O)[C@H](CCC(=O)O)NC(=O)C(C)(C)NC(=O)[C@H](Cc1ccc(O)cc1)NC)[C@@H](C)O)[C@@H](C)CC)C(=O)N[C@@H](C)C(=O)N[C@@H](CCCCNC(=O)CNC(=O)CNC(=O)CNC(=O)CNC(=O)CNC(=O)CCCCCCCCCCCCCCCCCCC(=O)O)C(=O)N[C@@H](CC(=O)O)C(=O)N[C@@H](CCCNC(=N)N)C(=O)NC(C)(C)C(=O)N[C@@H](C)C(=O)N[C@@H](CCC(N)=O)C(=O)NC(C)(C)C(=O)N[C@@H](CC(N)=O)C(=O)N[C@@H](Cc1ccccc1)C(=O)N[C@H](C(=O)N[C@@H](CC(N)=O)C(=O)N[C@@H](Cc1c[nH]c2ccccc12)C(=O)N[C@@H](CC(C)C)C(=O)N[C@@H](CC(C)C)C(=O)N[C@@H](C)C(=O)N[C@@H](CCC(N)=O)C(=O)N[C@@H](CO)C(=O)N1CCC[C@H]1C(=O)N[C@@H](CO)C(=O)N[C@@H](CO)C(=O)NCC(=O)N[C@@H](C)C(=O)N1CCC[C@H]1C(=O)N1CCC[C@H]1C(=O)N1CCC[C@H]1C(=O)N[C@@H](CO)C(=O)O)C(C)C [Compound 40] | 0.0004 | – | – | – | – | EC50 [5]: 5.6 nM; Oral Glucose Tolerance Test Percent decrease in blood glucose AUC (%) over 60 mins [6]: 102% (3 nmol/kg); Human PPB (FUplasma) ([1]; fraction unbound, human plasma, 1000 nmol/L peptide, ultracentrifugation): <0.002
